Read-outs that look alike come from different tables or passages of the source.
Tests used:
rat OX1R = target: T1, rat OX1R (Rattus norvegicus, UniProt P56718); test: FLIPR orexin A-stimulated calcium accumulation, rat OX1R; format: cell-based; conditions: HEK cells
T1 construct: expressed in transfected cells; host or cells: HEK; cells from GNF, San Diego
T1 sequence (P56718 1-416): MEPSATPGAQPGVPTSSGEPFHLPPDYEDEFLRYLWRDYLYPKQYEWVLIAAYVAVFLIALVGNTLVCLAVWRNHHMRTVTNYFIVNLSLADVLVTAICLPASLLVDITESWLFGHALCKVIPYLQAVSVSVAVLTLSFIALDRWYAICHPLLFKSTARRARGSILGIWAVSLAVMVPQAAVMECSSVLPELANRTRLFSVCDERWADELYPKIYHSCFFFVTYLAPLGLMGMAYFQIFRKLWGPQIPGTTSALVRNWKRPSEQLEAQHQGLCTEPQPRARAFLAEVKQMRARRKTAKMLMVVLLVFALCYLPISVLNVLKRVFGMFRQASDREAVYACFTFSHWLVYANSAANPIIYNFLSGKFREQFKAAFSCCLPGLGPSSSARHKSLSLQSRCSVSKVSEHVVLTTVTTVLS
Description: Chinese Hamster Ovary (CHO) cells stably transfected with the cDNA encoding the human OX1R (CHO-hOX1) or OX2R (CHO-hOX2) were used (kindly provided by T. Cremer and Dr. S. Geisse, NIBR Basel, Switzerland). For measurements of calcium accumulation using FLIPR® (Fluorescent Imaging Plate Reader) assay, CHO or Human Embryonic Kidney (HEK) cells stably expressing mouse, rat or human OX1R or OX2R (kindly provided by Dr. A. Chen, GNF, San Diego, CA, USA) were used. All cells were cultured in 1:1 Dulbecco's Modified Eagle's Medium (DMEM)/Ham's F12 Nutrients Mixture (F12) supplemented with 10% (v/v) fetal bovine serum (FBS), […] (100 μg/ml), Fungizone (250 μg/ml), and Geneticin (G418, […]). Cells were maintained in a humidified incubator at 37°C in 5% CO2. For crude cell membrane preparations, cells were washed and harvested in 10 mM HEPES (pH 7.5), and centrifuged at 4°C for 5 min at 2500 g. The cell pellet was either stored at −80°C or used directly.
Cells expressing either human, rat or mouse OX1R or OX2R were seeded at 8,000 cells/well in black 384 well clear bottom plates and incubated overnight at 37°C. The following day, medium was discarded and cells loaded with 50 μ l of 1 mM Fluo-4 AM (Invitrogen F14202) in dimethyl sulfoxide in working buffer (Hanks' balanced salt solution, 10 mM HEPES) and incubated for 60 min at 37°C. The loading buffer was removed and cells were washed with 100 μ l working buffer containing […], 0.1% BSA, and 2.5 mM Probenecid (pH 7.4) to remove the excess Fluo-4 AM. […] The assay plate was then transferred to the Molecular Devices-FLIPR384. The baseline calcium signal was recorded for 10 s, then the antagonist of interest was injected (10 μl at 3 times the final concentration) and the calcium signal recorded every second for 1 min, then every 2 s 40 times. Plates were then incubated at room temperature for 30 min, 1, 2, or 4 h.

sleep wake cycle = test system: sleep wake cycle; design: method as in Mang et al., 2012; conditions: ref Mang et al., 2012, cited from earlier work
OX2R = test: FLIPR calcium assay, OX2R, species not given; format: cell-based; conditions: species not stated
Description: (§1) Determination of orexin A-stimulated calcium accumulation was performed over 2 days using FLIPR® (Fluorescent imaging plate reader from Molecular Devices-FLIPR384). Cells expressing either human, rat or mouse OX1R or OX2R were seeded at 8,000 cells/well in black 384 well clear bottom plates and incubated overnight at 37°C. The following day, medium was discarded and cells loaded with 50 μ l of 1 mM Fluo-4 AM (Invitrogen F14202) in dimethyl sulfoxide in working buffer (Hanks' balanced salt solution, 10 mM HEPES) and incubated for 60 min at 37°C. The loading buffer was removed and cells were washed with 100 μ l working buffer containing […], 0.1% BSA, and 2.5 mM Probenecid (pH 7.4) to remove the excess Fluo-4 AM. Working buffer was added and plates were incubated 10–15 min at room temperature. The assay plate was then transferred to the Molecular Devices-FLIPR384. The baseline calcium signal was recorded for 10 s, then the antagonist of interest was injected (10 μl at 3 times the final concentration) and the calcium signal recorded every second for 1 min, then every 2 s 40 times. Plates were then incubated at room temperature for 30 min, 1, 2, or 4 h.

OX1R = test: FLIPR calcium assay, OX1R, species not given; format: cell-based; conditions: species not stated
Description: as §1

REM sleep = test system: REM sleep; design: method as in Bettica et al., 2012b, 2012c; conditions: 10, 30, or 60 mg; healthy volunteers and insomnia patients; ref Bettica et al., 2012b, 2012c; cited from earlier work

Compound	Ki (rat OX1R; antagonist incubation 30 min) [nM]	Ki (rat OX1R; antagonist incubation 1 h) [nM]	Ki (rat OX1R; antagonist incubation 2 h) [nM]	Ki (rat OX1R; antagonist incubation 4 h) [nM]	effect on sleep (sleep wake cycle; OX1R KO mice)	effect on the sleep wake cycle (sleep wake cycle; OX2R KO mice)	effect on the sleep wake cycle (sleep wake cycle; double receptor KO mice)	effect of incubation time on potency in calcium assay (OX2R)	effect of incubation time on potency in calcium assay (OX1R)	REM duration (REM sleep)	latency to REM (REM sleep)
CNC(=O)[C@@H](c1ccccc1)N1CCc2cc(OC)c(OC)cc2[C@@H]1CCc1ccc(C(F)(F)F)cc1 [Almorexant]	12.6	12.6	11.2	17.4	effective	no effect on the sleep wake cycle	no effect on the sleep wake cycle				
Cc1ccc(-c2ncccn2)c(C(=O)N2C[C@H](COc3ccc(F)cn3)CC[C@H]2C)c1 [Filorexant]	0.759	0.617	0.501	1.2							
COc1ccnc(N2CCC3(CCCN(Cc4c[nH]c5ccccc45)C3=O)CC2)n1 [IPSU, 2-((1H-Indol-3-yl)methyl)-9-(4-methoxypyrimidin-2-yl)-2,9-diazaspiro[5.5]undecan-1-one]	224	240	275	562				constant potency values irrespective of the incubation time	constant potency values irrespective of the incubation time		
Cc1nc(C(=O)N2CCCC[C@H]2CNC(=O)c2cccc3occc23)c(-c2ccc(F)cc2)s1 [SB-649868]	0.257	0.126	0.0676	0.0724						increases REM duration	decreases latency to REM

Reference: article PMC3847553, “Kinetic properties of “dual” orexin receptor antagonists at OX1R and OX2R orexin receptors” (Frontiers in Neuroscience, 2013)
